Data reported in patent US7897582B2, “Oligonucleotide compositions and methods for the modulation of the expression of B7 protein” (Isis Pharmaceuticals, Inc., priority 2003, dated 2011).
Strand notation (5' to 3'): a small letter for the sugar, then the base; units joined by * are phosphorothioate-linked, units joined directly phosphodiester-linked; [ ] holds rarer units or linkages, { } end groups; capitals alone tell only the bases. e = 2'-O-(2-methoxyethyl) (MOE); [5mC] = 5-methylcytosine; d = 2'-deoxy (DNA)

Legend:
hB7-2 mRNA = experiment: Ribonuclease protection assay of hB7-2 mRNA in transfected COS-7 cells; format: cell-based, human
Method: For ribonuclease protection assays, cells were harvested 18 hours after completion of oligonucleotide treatment using a Totally RNA™ kit (Ambion, Austin, Tex.). The probes for the assay were generated from plasmids pcB7-2 (linearized by digestion with Bgl II) and pTRI-b-actin (Ambion Inc., Austin, Tex.). In vitro transcription of the linearized plasmid from the SP6 promoter was performed in the presence of α-^32P-UTP (800 Ci/mmole) yielding an antisense RNA complementary to the 3′ end of B7-2 (position 1044-1391). The probe was gel-purified after treatment with DNase I to remove DNA template. Ribonuclease protection assays were carried out using an RPA II™ kit (Ambion) according to the manufacturer's directions. Total RNA (5 μg) was hybridized overnight, at 42° C., with 10^5 cpm of the B7-2 probe or a control beta-actin probe. The hybridization reaction was then treated, at 37° C. for 30 minutes, with 0.4 units of RNase A and 2 units of RNase T1. Protected RNA was precipitated, resuspended in 10 μL of gel loading buffer and electrophoresed on a 6% acrylamide gel with 50% w/v urea at 20 W. The gel was then exposed and the lanes quantitated using a PhosphorImager (Molecular Dynamics, Sunnyvale, Calif.) essentially according to the manufacturer's instructions.
The oligonucleotides were screened as described in Example 4 except that the concentration of oligonucleotide was varied as shown in Table 13. Mismatch control oligonucleotides were included.

Human B7-1 mRNA = Human B7-1 mRNA expression in COS-7 cells, screened as in Example 4; format: cell-based; details: human B7-1 mRNA; Table 7
[1] = COS-7 cells, B7-2 mRNA, oligonucleotide dose 10 nM, basal = 100%
[2] = COS-7 cells, B7-2 mRNA, oligonucleotide dose 30 nM, basal = 100%
[3] = COS-7 cells, B7-2 mRNA, oligonucleotide dose 100 nM, basal = 100%
[4] = COS-7 cells, B7-2 mRNA, oligonucleotide dose 300 nM, basal = 100%
[5] = COS-7 cells, B7-2 mRNA, oligonucleotide dose 10 nM
[6] = COS-7 cells, B7-2 mRNA, oligonucleotide dose 30 nM

Substance: 22302 (eA*eG*eA*eA*eA*dA*d[5mC]*d[5mC]*dA*dT*d[5mC]*dA*d[5mC]*dA*d[5mC]*eA*eT*eA*eT*eA; antisense) [compound 22302]
- % mRNA EXPRESSION (hB7-2 mRNA; human B7-2 mRNA, Table 12): 41%

Substance: 22303 (eA*eG*eA*eG*eT*dT*dG*d[5mC]*dG*dA*dG*dG*d[5mC]*d[5mC]*dG*e[5mC]*eT*eT*e[5mC]*eT; antisense) [compound 22303]
- % mRNA EXPRESSION (hB7-2 mRNA; human B7-2 mRNA, Table 12): 46%

Substance: 22304 (eT*e[5mC]*e[5mC]*e[5mC]*eT*d[5mC]*dT*d[5mC]*d[5mC]*dA*dT*dT*dG*dT*dG*eT*eT*eG*eG*eT; antisense) [compound 22304]
- % mRNA EXPRESSION (hB7-2 mRNA; human B7-2 mRNA, Table 12): 41%

Substance: 22305 (e[5mC]*eA*eT*e[5mC]*eA*dG*dA*dT*d[5mC]*dT*dT*dT*d[5mC]*dA*dG*eG*eT*eA*eT*eA; antisense) [compound 22305]
- % mRNA EXPRESSION (hB7-2 mRNA; human B7-2 mRNA, Table 12): 57%
- % mRNA INHIBITION (hB7-2 mRNA; human B7-2 mRNA, Table 12): 43%

Substance: 22306 (eG*eG*e[5mC]*eT*eT*dT*dA*d[5mC]*dT*d[5mC]*dT*dT*dT*dA*dA*eT*eT*eA*eA*eA; antisense) [compound 22306]
- % mRNA EXPRESSION (hB7-2 mRNA; human B7-2 mRNA, Table 12): 44%

Substance: 22307 (eG*eA*eA*eA*eT*d[5mC]*dA*dA*dA*dA*dA*dG*dG*dT*dT*eG*e[5mC]*e[5mC]*e[5mC]*eA; antisense) [compound 22307]
- % mRNA EXPRESSION (hB7-2 mRNA; human B7-2 mRNA, Table 12): 45%

Substance: 22308 (eG*eG*eA*eG*eT*d[5mC]*d[5mC]*dT*dG*dG*dA*dG*d[5mC]*d[5mC]*d[5mC]*e[5mC]*e[5mC]*eT*eT*eA; antisense) [compound 22308]
- % mRNA EXPRESSION (hB7-2 mRNA; human B7-2 mRNA, Table 12): 40%

Substance: 22309 (eT*eT*eG*eG*e[5mC]*dA*dT*dA*d[5mC]*dG*dG*dA*dG*d[5mC]*dA*eG*eA*eG*e[5mC]*eT; antisense) [compound 22309]
- % mRNA EXPRESSION (hB7-2 mRNA; human B7-2 mRNA, Table 12): 42%

Substance: 22310 (eT*eG*eT*eG*e[5mC]*dT*d[5mC]*dT*dG*dA*dA*dG*dT*dG*dA*eA*eA*eA*eG*eA; antisense) [compound 22310]
- % mRNA EXPRESSION (hB7-2 mRNA; human B7-2 mRNA, Table 12): 41%

Substance: 22311 (eG*eG*e[5mC]*eT*eT*dG*dG*d[5mC]*d[5mC]*d[5mC]*dA*dT*dA*dA*dG*eT*eG*eT*eG*e[5mC]; antisense) [compound 22311]
- % mRNA EXPRESSION (hB7-2 mRNA; human B7-2 mRNA, Table 12): 49%

Substance: 22312 (e[5mC]*e[5mC]*eT*eA*eA*dA*dT*dT*dT*dT*dA*dT*dT*dT*d[5mC]*e[5mC]*eA*eG*eG*eT; antisense) [compound 22312]
- % mRNA EXPRESSION (hB7-2 mRNA; human B7-2 mRNA, Table 12): 83%
- % mRNA INHIBITION (hB7-2 mRNA; human B7-2 mRNA, Table 12): 17%

Substance: 22313 (eA*eG*eA*e[5mC]*eT*d[5mC]*d[5mC]*dA*d[5mC]*dT*dT*d[5mC]*dT*dG*dA*eG*eA*eT*eG*eT; antisense) [compound 22313]
- % mRNA EXPRESSION (Human B7-1 mRNA): 75%
- % mRNA INHIBITION (Human B7-1 mRNA): 25%

Substance: 22314 (eT*eG*eA*eA*eG*dA*dA*dA*dA*dA*dT*dT*d[5mC]*d[5mC]*dA*e[5mC]*eT*eT*eT*eT; antisense) [compound 22314]
- % mRNA EXPRESSION (Human B7-1 mRNA): 69%
- % mRNA INHIBITION (Human B7-1 mRNA): 31%

Substance: 24736 (antisense eG*e[5mC]*eT*e[5mC]*e[5mC]*dA*dA*dG*dT*dG*dT*d[5mC]*d[5mC]*d[5mC]*dA*eA*eT*eG*eA*eA) [compound 24736]
- % mRNA EXPRESSION (hB7-2 mRNA; [1]): 102%
- % mRNA EXPRESSION (hB7-2 mRNA; [2]): 101%
- % mRNA EXPRESSION (hB7-2 mRNA; [3]): 100%
- % mRNA EXPRESSION (hB7-2 mRNA; [4]): 107%

Substance: 24737 (antisense eA*eG*eT*eA*eT*dG*dT*dT*dT*d[5mC]*dT*d[5mC]*dA*d[5mC]*dT*e[5mC]*e[5mC]*eG*eA*eT) [compound 24737]
- % mRNA INHIBITION (hB7-2 mRNA; [5]): 15%
- % mRNA EXPRESSION (hB7-2 mRNA; [1]): 85%
- % mRNA INHIBITION (hB7-2 mRNA; [6]): 5%
- % mRNA EXPRESSION (hB7-2 mRNA; [2]): 95%
- % mRNA INHIBITION (hB7-2 mRNA; COS-7 cells, B7-2 mRNA, oligonucleotide dose 100 nM): 13%
- % mRNA EXPRESSION (hB7-2 mRNA; [3]): 87%
- % mRNA INHIBITION (hB7-2 mRNA; COS-7 cells, B7-2 mRNA, oligonucleotide dose 300 nM): 1%
- % mRNA EXPRESSION (hB7-2 mRNA; [4]): 99%

Substance: 24738 (antisense eT*eG*e[5mC]*e[5mC]*eA*dG*d[5mC]*dA*d[5mC]*d[5mC]*d[5mC]*dG*dG*dT*dA*e[5mC]*eG*eT*e[5mC]*e[5mC]) [compound 24738]
- % mRNA INHIBITION (hB7-2 mRNA; [5]): 19%
- % mRNA EXPRESSION (hB7-2 mRNA; [1]): 81%
- % mRNA INHIBITION (hB7-2 mRNA; [6]): 8%
- % mRNA EXPRESSION (hB7-2 mRNA; [2]): 92%
- % mRNA EXPRESSION (hB7-2 mRNA; [3]): 101%
- % mRNA EXPRESSION (hB7-2 mRNA; [4]): 124%
